Values joined by “and” are separate entries in the source; they are usually repeats but may differ in a detail not shown here. Identical values can stand only once.

For the assay, the system named is S. Typhimurium PhoP-promoter GFP reporter counterscreen, fluorescence, 4 h. In words: S. Typhimurium GFP fluorescence dose response in modified counterscreen for PhoP regulon inhibitor project (AID 1981).
For the compound `C#CCOCCOCCOCCNc1nc(N2CCN(C(=O)CCCCCCCCCCNC(=O)[C@H](CO)n3cc(CCCCCN)nn3)CC2)nc(N2CCN(C(=O)CCCCCCCCCCNC(=O)[C@H](CCCN=C(N)N)n3cc(C[C@@H](C)CC)nn3)CC2)n1`, the IC50 was 90.3 µM.
Under `O=C(NNC(=O)c1cnccn1)c1ccc(Cl)cc1` stands 89.5 µM; under `Cc1ccc(S(=O)(=O)/N=C2/C=C(Sc3ncn[nH]3)C(=O)c3ccccc32)cc1`, 36.6 µM; under `ON=C1/C(=N\O)CC2(C/C1=N/O)OCCO2`, 125 µM.
Under `CCCCCCNC(=O)c1cn(CC)c2cc(N3CCN(C)CC3)c(F)cc2c1=O` stands 32 µM.
Under `O=C(N/N=C/c1cccs1)c1cccs1` stands 81.4 µM.
On to `CCCCCCOC(=O)C[N+](C)(C)CCOC1CC2CCC1(C)C2(C)C` (stereo unspecified), for which the IC50 was 71.2 µM.
In the case of `Cc1ccnc(NC(c2cccnc2)c2ccc3cccnc3c2O)c1` (stereo unspecified) it was 76.4 µM.
Under `OC(c1cc(C(F)(F)F)nc2c(Cl)cc(Cl)cc12)C1CCCCN1` (stereo unspecified) stands 133 µM; under `CCCCCCCCCCOC(=O)Cn1c(COc2ccc(Cl)cc2)[n+](C)c2ccccc21`, 26.7 µM.
Under `CCOc1ccc(Nc2nc(N)c3ccccc3n2)cc1` stands 109 µM.
`CCCCCCCCCC[n+]1cccc2c3ccccc3ccc21`: the IC50 is 43.8 µM.
Turning to `Cc1cc(C(=O)N/N=C/c2ccc(O)c(O)c2O)c(C)n1-c1ccccc1`, the 50% inhibitory concentration (IC50) was 30 µM.
In the case of `C=CC1=C(C(=O)O)N2C(=O)[C@@H](NC(=O)/C(=N\O)c3csc(N)n3)[C@H]2SC1` (stereo in doubt) it was 33.8 µM; in that of `Oc1ccc(Cl)cc1Cc1cc(Cl)ccc1O`, 57 µM.
On to `CN(C)c1ccc(O)c2c1CC1CC3C(N(C)C)C(=O)C(C(N)=O)=C(O)[C@@]3(O)C(=O)C1=C2O` (stereo partly specified), for which the IC50 is 1.54 µM.
In the case of `Cc1nc(NC(=O)c2ccccc2)sc1-c1csc(Nc2ccc(F)cc2)n1` it was 86.4 µM; in that of `O=C1c2ccccc2NC(c2ccc(-c3ccc(Br)cc3)o2)N1O` (stereo unspecified), 53 µM.
Under `O=C(NC1CCCC1)c1ccc(Cl)s1` stands 86.3 µM.
Under `COc1nsnc1NS(=O)(=O)c1ccc(NC(=S)NC(=O)c2cccnc2)cc1` stands 34.4 µM; under `C/C(=N\N=C(N)N)c1ccc(Cl)c(Cl)c1`, 92.6 µM.
As for `C=CCNc1ncnc2c1[nH]c1ccccc12`, the IC50 was 106 µM.
In the case of `O=C(CSc1nc2ccccc2s1)N/N=C/c1cc([N+](=O)[O-])ccc1O` it was 85.3 µM.
Under `Nc1ccc(Nc2ccccc2)cc1` stands 92.1 µM; under `COc1cccc(Nc2nc(NCC3CCCO3)c3ccccc3n2)c1` (stereo unspecified), 102 µM; under `O=C(N/N=C/c1cccc([N+](=O)[O-])c1O)c1cccs1`, 20.4 µM.
Under `C[C@H]1c2cccc(O)c2C(O)=C2C(=O)C3(O)C(O)=C(C(N)=O)C(=O)[C@@H](N(C)C)[C@@H]3[C@@H](O)[C@@H]21` (stereo partly specified) stands 1.83 µM.
In the case of `Oc1ccc(NCc2ccccc2OCc2ccccc2F)cc1`, the IC50 was 79.6 µM.
Consider `O=C(N/N=C/c1ccc([N+](=O)[O-])o1)c1ccc(O)cc1`, for which the IC50 was 21 µM.
Under `Oc1cccc(/C=N/Nc2ccc(Cl)nn2)c1O` stands 24.4 µM; under `Oc1ccc(CN2CCCc3ccccc32)c2cccnc12`, 20 µM; under `CCCCCCCCCCCCCCCCn1cc[n+](CC(C)=O)c1`, 86.1 µM.
In the case of `CN(O)/C=c1/ccc2c(n1)C(=O)C=CC=2` it was 54.1 µM; in that of `COc1ccc(C(C[N+](=O)[O-])C2(c3ccc(OC)c(OC)c3)C(=O)c3ccccc3C2=O)cc1` (stereo unspecified), 23.6 µM; in that of `CC(=O)NC(c1ccc(Cl)cc1Cl)c1ccc2cccnc2c1O` (stereo unspecified), 40.2 µM.
Under `CCN(CC)S(=O)(=O)c1cccc(C(=O)N/N=C/c2ccc(O)c(O)c2O)c1` stands 78.9 µM; under `CC(C)NC1=C(Cl)C(=O)c2ccccc2C1=O`, 59.4 µM; under `CCCCCNCC(=O)Nc1cccc(C(=O)Nc2cccc(C(F)(F)F)c2)c1`, 135 µM.
`CCC(C)(C)c1ccc(OCCCC[n+]2ccccc2)c(C(C)(C)CC)c1`: the 50% inhibitory concentration (IC50) is 63.4 µM.
In the case of `O=C(O)CCN1C(=O)CC(N2C(=O)/C(=C/c3ccc(Cl)cc3)SC2=S)C1=O` (stereo unspecified) it was 22.5 µM; in that of `CCCCCCCCCCOC(=O)Cn1c(COc2ccc(OC)cc2)[n+](C)c2ccccc21`, 36.5 µM and 36.1 µM.
In the case of `CCCCCCCCCCOC(=O)Cn1c(COc2cccc(C)c2)[n+](C)c2ccccc21` it was 28.5 µM; in that of `CCn1cc(C(=O)NCC(C)C)c(=O)c2cc(F)c(N3CCN(C)CC3)cc21`, 72.6 µM; in that of `O=C(N/N=C\c1cccc([N+](=O)[O-])c1O)C1COc2ccccc2O1` (stereo unspecified), 96 µM.
Under `CCN1/C(=C/C=C/C=C/c2sc3ccccc3[n+]2CC)Sc2ccccc21` stands 23.6 µM; under `Cc1cccc(Nc2cc(C)c3c(O)cccc3n2)c1C`, 82.7 µM; under `CCCC(=O)NC(c1cccs1)c1cc([N+](=O)[O-])c2cccnc2c1O` (stereo unspecified), 30.1 µM.
Turning to `COc1ccccc1CNCCc1ccc(F)cc1`, the IC50 was 61.4 µM.
For the compound `O=C(NN=C1CCN(Cc2ccccc2)CC1)c1cc2ccccc2cc1O`, the IC50 was 128 µM.
In the case of `COC(=O)C1C(O)C(C)C(O)C(C)/C=C\C=C(/C)C(=O)Nc2c(C)c(OC(C)=O)c3c(c2O)C(=O)C(C)=C2OCOC(=C23)/C(C)=C/C(C)(O)C(O)C(C)C1O` (stereo unspecified) it was 23.5 µM.
In the case of `Oc1ccc(N2CCN(Cc3ccc(OCCCN4CCCCC4)cc3)CC2)cc1` it was 110 µM; in that of `CN1CCN(c2c(F)cc3c(=O)c(C(=O)O)cn4c3c2SCC4)CC1`, 7.73 µM and 6.13 µM; in that of `Nc1ncncc1-c1ccc([N+](=O)[O-])cc1`, 136 µM.
In the case of `Oc1ccc(CN2CCc3ccccc3C2)c2cccnc12` it was 30.5 µM.
For `C[C@H]1c2cccc(O)c2C(O)=C2C(=O)[C@]3(O)C(O)=C(C(N)=O)C(=O)[C@@H](N(C)C)C3[C@@H](O)C21` (stereo partly specified), the IC50 is 1.31 µM.
Under `CNc1cc(Cl)c2nonc2c1[N+](=O)[O-]` stands 115 µM; under `O=Cc1ccc(O)c2ncccc12`, 6.78 µM; under `Clc1cc(Br)ccc1OCCCNCc1ccccc1`, 83.4 µM.
In the case of `Oc1cccc(Nc2nc(NCC3CCCO3)c3ccccc3n2)c1` (stereo unspecified) it was 148 µM; in that of `CCn1cc(C(=O)O)c(=O)c2cc3c(cc21)OCO3`, 67.5 µM.
As to `COc1ccc(C(C[N+](=O)[O-])n2nc(C)cc2C)cc1` (stereo unspecified), the IC50 is 21.6 µM.
In the case of `O=C(N[C@H](CO)[C@H](O)c1ccc([N+](=O)[O-])cc1)C(Cl)Cl` it was 8.46 µM; in that of `CCn1cc(C(=O)O)c(=O)c2cc(F)c(N3CCN(C(=S)Nc4ccc(OC)cc4)CC3)cc21`, 7.49 µM; in that of `CS(=O)(=O)c1ccc([C@@H](O)[C@@H](CO)NC(=O)C(Cl)Cl)cc1`, 63.7 µM.
In the case of `COC(=O)c1c(NC(=O)c2ccc([N+](=O)[O-])o2)sc2c1CCN(C(C)C)C2` it was 55.8 µM.
Under `N=c1n(CC(=O)c2ccc(Br)s2)c2ccccc2n1Cc1ccccc1` stands 131 µM.
Regarding `CCCCCOc1ccc(Br)cc1CSC(=N)N`, the IC50 is 41.4 µM.
For the compound `CCN1CCN(C(c2cccnc2)c2cc(Cl)c3cccnc3c2O)CC1` (stereo unspecified), the IC50 is 61.9 µM.
For `O=C(CSc1ccccn1)N/N=C/c1cc([N+](=O)[O-])ccc1O`, the IC50 was 45.6 µM.
In the case of `O=[N+]([O-])c1cc(F)c2cccnc2c1O`, the IC50 was 9.5 µM.
With `Clc1ccc(CN2CCC(c3nc4ccc(Cl)cc4[nH]3)CC2)cc1`, the IC50 is 51.7 µM.
Under `CCCCCCCCCCCCCCCC[n+]1cccc(C(=O)N(CC)CC)c1` stands 29.6 µM; under `Cc1nc(N)c(Cc2ccc(Cl)cc2Cl)c(N)n1`, 86.9 µM.
In the case of `O=[N+]([O-])c1ccc(O)c(/C=N/Nc2ccccn2)c1` it was 12.5 µM; in that of `CCCCCCCNC(=O)C1(CC2CC(c3ccc(Cl)cc3)=NO2)CCNCC1` (stereo unspecified), 47.8 µM.
Under `CCCCCC(CC(=O)NO)C(=O)NC(C(=O)N1CCCC1CO)C(C)C` (stereo unspecified) stands 33.3 µM.

For the origin of these results see PubChem BioAssay AID1981 (Southern Research Specialized Biocontainment Screening …, 2009).
